This is an account of results in PubChem BioAssay (NCI).

Common to all, as to test: NCI tumour cell line growth inhibition, 48 h
The subject of experiment [1] is COLO 205 colon.
The subject of experiment [2] is DU-145 prostate.
Experiment [3] has as its system HS 578T breast.
Experiment [4] deals with SK-OV-3 ovarian.
For experiment [5], the system named is SR leukemia.
Experiment [6] relates to RPMI-8226 leukemia.
Experiment [7] relates to U251 CNS.
Experiment [8] concerns SK-MEL-2 melanoma.
For experiment [9], the system named is TK-10 renal.
In experiment [10] the test system is OVCAR-5 ovarian.

Molecules are shown by their SMILES.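 Results reflect a 48-hour exposure of cells in 96-well plates to compound at five concentrations. GI50: concentration for 50% inhibition of growth. TGI: concentration producing complete growth inhibition.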

As for `Clc1ccc2ns[s+]c2c1`, the TGI was more than 44.9 µM in experiment [1]; more than 100 µM in experiment [2]; more than 100 µM in experiment [3]; more than 100 µM in experiment [4]; more than 31.6 µM in experiment [5]; more than 100 µM in experiment [6]. Besides, the TGI in experiment [7] is more than 100 µM; in experiment [8], more than 82.5 µM; in [9], more than 61.1 µM; in [10] it was more than 100 µM.

For `COC(=O)c1ccc(CN2C(=O)C(Cl)=C(Nc3ccc(OC)c(Cl)c3)C2=O)cc1`, the GI50 in [1] was 17 µM; in experiment [2], 21.8 µM; in experiment [3], 43 µM; in experiment [4], 33.9 µM; in experiment [5] it was 4.08 µM; in [6], more than 50 µM. The GI50 in experiment [7] is 7.26 µM; in experiment [8], 20.5 µM; in experiment [9] it was more than 50 µM; in [10] it was 17.8 µM. Besides, the TGI was more than 50 µM in [1]; more than 50 µM in [2]; more than 50 µM in experiment [3]; more than 50 µM in [4]; 36.9 µM in experiment [5]; more than 50 µM in [6]. The TGI in [7] is 19.5 µM; in experiment [8] it was more than 50 µM; in experiment [9] it was more than 50 µM; in [10], 44.1 µM.

For `Nc1cc2[nH]cnc2c(=O)[nH]1`, the TGI is 228 µM in [1]; more than 300 µM in [2]; more than 300 µM in [3]; more than 188 µM in experiment [4]; more than 94.9 µM in [5]; more than 300 µM in [6]. Further, the TGI in experiment [7] is more than 300 µM; in [8] it was 125 µM; in experiment [9] it was more than 300 µM; in experiment [10] it was more than 289 µM.

For `CCCCCCCCCCCCCCCCCCNC(=O)OCC(CNS(=O)(=O)CCC[n+]1cccc2ccccc21)COC` (stereo not given), the TGI in experiment [2] is 34.3 µM; in [3], 5.35 µM; in [4], more than 24.5 µM; in experiment [5] it was more than 100 µM; in experiment [6], more than 100 µM; in [9] it was 31.1 µM. This compound came in with a TGI in [10] of 6.09 µM.

Take `CNCCNc1nc2ccccc2c2c(=O)c3cc(F)ccc3sc12`: the GI50 in experiment [1] is 1.67 µM; in experiment [2] it was 1.71 µM; in [3], 2 µM; in experiment [4], 2.13 µM; in [5], 1.83 µM; in experiment [6], 1.91 µM. The results for the GI50 in [7], in experiment [8] and in [10] were 1.63 µM, 1.76 µM and 1.65 µM, respectively. In addition, the TGI was 3.36 µM in [1]; 3.15 µM in experiment [2]; 4.79 µM in experiment [3]; 7.58 µM in experiment [4]; 4.31 µM in experiment [5]; 4.03 µM in experiment [6]. Further, the values for the TGI in experiment [7], in [8] and in experiment [10] were 3.18 µM, 3.45 µM and 3.21 µM, respectively.

In the case of `CC[C@]1(O)C[C@@H]2CN(CCc3c([nH]c4ccccc34)[C@@](C(=O)OC)(c3cc4c(cc3OC)N(C)[C@H]3[C@@](O)(C(N)=O)[C@H](O)[C@]5(CC)[C@@H]6C[C@@H]6CN6CC[C@]43[C@@H]65)C2)C1`, the GI50 in experiment [1], in experiment [2], in experiment [3], in [4], in [5] and in experiment [6] was less than 0.00333 µM throughout. Further, the GI50 is less than 0.00333 µM in experiment [7], less than 0.00333 µM in [8], 13 µM in experiment [9] and 0.0912 µM in experiment [10]. Further, the TGI in experiment [1] is 0.00878 µM; in [2] it was 0.795 µM; in experiment [3], more than 21.3 µM; in experiment [4] it was more than 33.3 µM; in experiment [5], 10.2 µM; in experiment [6], more than 28.7 µM. Also, the TGI in [7], in experiment [9] and in [10] was more than 33.3 µM throughout.

For the compound `C/C=C(/C)c1cnc(CC(C)C)c(=O)[nH]1`, the TGI in experiment [1], in experiment [2], in experiment [3], in experiment [4], in experiment [5] and in experiment [6] was more than 100 µM throughout. Moreover, the TGI in experiment [7], in [8], in experiment [9] and in [10] was more than 100 µM each time.

For the compound `COc1nc(C)cc2c(=O)n(-c3ccccc3)n(CC(O)CN3CCN(c4ccc(Cl)cc4)CC3)c(=O)c12` (stereo not given), the GI50 was more than 50 µM in experiment [1]; more than 50 µM in experiment [2]; 18.8 µM in experiment [3]; 22.3 µM in experiment [4]; more than 50 µM in experiment [5]; more than 50 µM in [6]. In addition, the GI50 in experiment [7] was 30.6 µM; in [8], 43.1 µM; in experiment [9], more than 50 µM; in [10], more than 50 µM. Also, the TGI in experiment [1], in experiment [2], in experiment [3], in experiment [4], in experiment [5] and in experiment [6] was more than 50 µM throughout. Besides, the TGI in [7], in experiment [8], in experiment [9] and in experiment [10] was more than 50 µM each time.

Regarding `Cc1cc(=O)oc2cc(OC(=O)N(CCCl)CCCl)ccc12`, the TGI in experiment [1], in experiment [2], in experiment [3], in [4], in [5] and in [6] was more than 100 µM in each case. Besides, the TGI in experiment [7], in experiment [8], in [9] and in experiment [10] was more than 100 µM throughout.

`Cn1cc(C2=C(c3cn(C)c4cc(N)ccc34)C(=O)NC2=O)c2ccccc21`: the GI50 in experiment [1] is 1.63 µM; in [2], 1.84 µM; in [3] it was 1.06 µM; in experiment [4] it was 2.25 µM; in experiment [5] it was 0.364 µM; in experiment [6], 2.92 µM. Besides, the GI50 is 1.41 µM in experiment [7], 4.26 µM in [8], 4.03 µM in experiment [9] and 8.13 µM in experiment [10]. In addition, the TGI was 9.59 µM in experiment [1]; 16.8 µM in [2]; more than 19.6 µM in experiment [3]; more than 25 µM in [4]; 4.02 µM in experiment [5]; 11.6 µM in [6]. The TGI was 10.2 µM in experiment [7], 10.6 µM in experiment [8], 14.3 µM in [9] and more than 21.9 µM in experiment [10].

Regarding `COC(=O)[C@]1(C)CCC[C@@]2(C)[C@@H]3C[C@@H]4[C@H]5C[C@@]3(CC[C@@H]21)C[C@@]45C`, the TGI in experiment [1] is 45.8 µM; in experiment [2], 65.9 µM; in experiment [3], 47.9 µM; in experiment [4] it was 27.8 µM; in experiment [6] it was 27.7 µM; in experiment [7], 63.7 µM. Further, the TGI was 30.9 µM in [8], 28.3 µM in [9] and 34.2 µM in experiment [10].

Take `CCCCCCNC(=O)Oc1ccc(/C(=C(/C)Cc2ccc(OC)cc2)c2ccc(OCCN(C)C)cc2)cc1`: the GI50 was 4.71 µM in experiment [1]; 5.55 µM in experiment [2]; 5.87 µM in experiment [3]; 4.99 µM in [4]; 1.32 µM in experiment [5]; 0.983 µM in experiment [6]. For the same compound, the GI50 is 3.61 µM in [7], 5.91 µM in [8], 4.52 µM in [9] and 4.58 µM in [10]. In addition, the TGI in experiment [1] amounted to 9.79 µM; in experiment [2], 10.4 µM; in experiment [3], 12.3 µM; in experiment [4], 9.5 µM; in experiment [5], 6.55 µM; in experiment [6], 2.7 µM. Moreover, the TGI was 7.9 µM in [7], 11 µM in experiment [8], 9.02 µM in [9] and 8.99 µM in experiment [10].

Take `CN(C)CCCc1c2ccccc2nc2ccc(Cl)cc12`: the TGI is 29.8 µM in experiment [1]; 58.7 µM in experiment [2]; 34.4 µM in experiment [3]; 41.7 µM in [4]; 44.1 µM in experiment [5]; 96.2 µM in experiment [6]. In addition, the TGI in experiment [7] was determined as 24.8 µM; in experiment [8] it was 34.8 µM; in experiment [9], 27.1 µM; in [10], 33.3 µM.

As to `CN1c2ccccc2S(=O)(=O)n2c(CCc3ccccc3)nnc21`, the TGI in experiment [1], in experiment [2], in experiment [3], in experiment [4], in [7] and in experiment [8] was more than 100 µM each time. In addition, the TGI in experiment [9] and in experiment [10] was more than 100 µM each time.

With `CC(C)(C)n1cc(-c2ccnc(NCCCNS(=O)(=O)c3ccc(Br)cc3)c2)c(-c2cccc(O)c2)n1`, the GI50 is 1.85 µM in experiment [1]; 2.1 µM in [2]; 2.24 µM in [3]; 2.53 µM in [4]; 1.65 µM in experiment [7]; 2.13 µM in experiment [8]. Also, the GI50 in [9] is 2.51 µM; in experiment [10] it was 1.87 µM. For the same compound, the TGI in experiment [1] stood at 3.79 µM; in experiment [2] it was 4.23 µM; in experiment [3] it was 5.53 µM; in [4] it was 6.26 µM; in experiment [7], 3.66 µM; in [8], 4.31 µM. Further, the TGI turned out to be 6.62 µM in experiment [9] and 3.5 µM in experiment [10].

On to `CNCCNc1nc2ccccc2c2c(=O)c3cc(OC)ccc3sc12`, for which the GI50 is 1.64 µM in experiment [1]; 1.73 µM in experiment [2]; 1.84 µM in experiment [3]; 1.82 µM in [4]; 1.74 µM in experiment [5]; 1.62 µM in experiment [6]. The GI50 in experiment [7] was 1.5 µM; in experiment [8] it was 1.94 µM; in [10], 1.8 µM. Besides, the TGI in [1] amounted to 3.34 µM; in [2], 3.16 µM; in [3], 4.33 µM; in experiment [4], 3.97 µM; in experiment [5], 4.23 µM; in experiment [6], 3.41 µM. The TGI in [7] was 2.92 µM; in experiment [8] it was 3.83 µM; in experiment [10], 3.27 µM.

As to `Cc1nn(CNc2ccccc2C(F)(F)F)c(=S)n1/N=C/c1ccc(F)cc1`, the GI50 in experiment [1] is 53.2 µM; in [2] it was more than 100 µM; in [3], 72.3 µM; in [4], more than 100 µM; in experiment [5] it was 12.3 µM; in experiment [6] it was 48.5 µM. The results for the GI50 in experiment [8], in experiment [9] and in [10] were more than 100 µM, 53.8 µM and 73 µM, respectively. The TGI is more than 100 µM in [1]; more than 100 µM in experiment [2]; more than 100 µM in experiment [3]; more than 100 µM in experiment [4]; 51.6 µM in [5]; more than 100 µM in experiment [6]. In addition, the TGI in experiment [8], in [9] and in experiment [10] was more than 100 µM each time.

Turning to `C[C@]12CC[C@H]3[C@@H](CC[C@]4(O)C[C@@H](O)CC[C@]34CO)[C@@]1(O)CC[C@@H]2C1=CC(=O)OC1`, the TGI in [1] is 29.7 µM; in experiment [2], 2.24 µM; in experiment [3], more than 100 µM; in experiment [4], 6.72 µM; in [5] it was more than 100 µM; in experiment [6], 6.83 µM. For the same compound, the TGI in experiment [8] amounted to 8.23 µM; in [9], 4.91 µM; in [10], 10.5 µM.

As for `Cc1ccc2sc3ccc(N)cc3c(=O)c2c1`, the TGI in experiment [1], in experiment [2], in experiment [3], in experiment [4], in experiment [5] and in experiment [7] was more than 100 µM in each case. Besides, the TGI in experiment [8], in [9] and in experiment [10] was more than 100 µM in each case.

With `O=C(O)c1cccc(/C=C/c2ccccc2)c1`, the TGI in experiment [1], in experiment [2], in [3], in experiment [4], in experiment [6] and in [7] was more than 100 µM throughout. Besides, the TGI in [8], in experiment [9] and in experiment [10] was more than 100 µM in each case.
